From patent EP0133934A2, “Pharmacologically active 1,3,4-thiadiazol-(3,2-a)-thieno-(2,3-d)-pyrimidin-5-(H)one derivatives” (NIKEPHARMA S.r.l., priority 1983, dated 1985)

How the values were obtained:
carrageenin oedema = experiment: Antiinflammatory activity: carrageenin oedema in the rat; type: in vivo; details: po, 4 h, os, 100 mg/kg, one hour before carrageenin, read-out: OEDEMA INHIBITION % at the fourth hour
Experimental: (§1) The activity tests were carried out on male Spra gue-Dawley rats weighing 200+20 g and on male Swiss mice weighing 26+3 g.
(§2) The test compounds were administered orally by means of gastroesophageal tube, in the form of a suspen sion in a 10 ml/kg mucilage of 5% gum arabic; and intraperitoneally in the form of an aqueous suspen sion added with a few drops of Tween 80, in the con stant volume of 10 ml/kg.
The compounds under test and the control ones were administered orally one hour before the injection of 0.1 ml of 1% carrageenin in the right paw of the animals.
The volume of the paw was measured by means of a plethysmograph immediately before the injection and 2, 4 and 6 hours after.
The results were expressed as percentage inhibi tion of the oedema in the treated animals in comparison with the control animals, at the time of the maximum oedema development (fourth hour after the carrageenin injection).

acetic acid peritonitis = experiment: Anti-exudative activity: acetic acid peritonitis in the rat; type: in vivo; details: for EXUDATE VOLUME ml ± E.S.: controls 2.58 ± 0.18
Experimental: The test was carried out according to the procedure described by Arrigoni-Martelli (Boll.Chim. Far. 107, 29, 1968). This method is based upon the evaluation of the anti-exudative effect of a drug at the peritoneal level, following a intraperitoneal injection of 10 ml/kg of a 0.5% acetic acid solution.
The compounds under test were administered oral ly one hour before the inflammatory agent; 30 minutes after the treatment the animals were killed and the fluid from the peritoneal cavity was drawn and measured.
The test compounds were administered by oral route 1 hour before intraperitoneal injection of acetic acid (10 ml/kg of a 0.5% solution).
The anti-exudative activity was determined on the basis of the peritoneal exudate of the treated animals, in comparison with the controls.

[1] = tested on: Writhing test induced by phenyl-benzoquinone; experiment: Phenylbenzoquinone writhing test in the rat; type: in vivo
Experimental: as §1, §2

gastric ulceration = type: in vivo, rat; details: os, 400 mg/kg
Experimental: To rats fasted for 18 hours, with water ad libitum, were administered the compounds under test at "0" time and after 2 hours. Control rats were treated with established anti-inflammatory agents.
6 Hours after the beginning of the test, the animals were killed by ether inhalation.
Gastric ulceration was assessed on the ground of values ranging from 0 to 4: • 0 = no ulceration; • 1 = slight iperhaemia and/or a few ulcers; • 2 = severe iperhaemia and many punctiform ulcers; • 3 = severe submucosal hemorrage, one large ulcer and many punctiform ulcers; • 4 severe submucosal hemorrage and many large ulcers.
The ulcerogenic index was measured by the following formula (Lwoff. J.M., J. Pharmacol., 2, 81, 1971): [formula]

Carrageenin pleuritis = Carrageenin pleuritis in the rat; type: in vivo; details: for EXUDATE VOLUME: 30 min. before carrageenin and 6 hours after, exudate at 18 hours, controls 2.76 ± 0.38
Experimental: Compound HA-34 was tested for the protective activity against the exudative pleuritis reaction induced by carrageenin. HA-34 was administered 30 min. before the injection of carrageenin, and 6 hours after it. The experiment was carried out on male Spra- gue-Dawley rats, anestethized with ethyl urethane, which were subjected, in their right pleural cavity, to injection of 1.5 ml of air and then 0.1 ml of a 1% carrageenin solution, in sterile normal saline, according to the procedure by Van Armann et al. (J. Pharmac. Exp. Ther., 150, 328, 1965). Indometha cin and Piroxicam were employed as the control drugs, under the same conditions. 18 Hours after the intrapleuric carrageenin injec tion, the animals were killed by means of ether inhalation, and the pleuric exudate was collected and measured.

[2] = tested on: phenylbenzoquinone writhing test; experiment: Phenylbenzoquinone writhing test in the mouse (ED50 and duration of effect); type: in vivo; details: for % INHI-BITION / N° OF WRITHES IN 10' ml ± E.S.: Table 6, oral, one hour before the test; for N° OF WRITHES IN 10' ml ± E.S.: controls 52.4 ± 1.69; for % INHIBITION / Nº OF WRITHES IN 10' ml ± E.S.: Table 7, oral 1 mg/kg; for Nº OF WRITHES IN 10' ml ± E.S.: controls 53.2 ± 1.26
Experimental: The analgesic effect was determined by the number of writhes of the abdomen recorded during 10 minutes (from 5 to 15 minutes after the phenylbenzo quinone injection).

[3] = 30 min. before phenylbenzoquinone

SMILES: CSc1nn2c(=O)c3c4c(sc3nc2s1)CCCC4 [HA 34, 2-Methyl-mercapto-6,7,8,9-tetrahydro-5H[1]-benao-thieno[2,3-d]-1,3,4-thiadiazole[3,2-a]pyrimidin-5[H]-one]
- inhibition in vivo at 100 mg/kg (carrageenin oedema): 48.8 ± 0.91%
- inhibition in vivo at 10 mg/kg (acetic acid peritonitis; Rattus norvegicus, po, Table 4, os, 10 mg/kg): 64%
- inhibition in vivo at 0.1 mg/kg (acetic acid peritonitis; Rattus norvegicus, po, Table 8, oral, 0.1 mg/kg): 26.7%
- inhibition in vivo at 0.5 mg/kg (acetic acid peritonitis; Rattus norvegicus, po, Table 8, oral, 0.5 mg/kg): 48%
- inhibition in vivo at 1 mg/kg (acetic acid peritonitis; Rattus norvegicus, po, Table 8, oral, 1 mg/kg): 53.2%
- inhibition in vivo at 10 mg/kg (acetic acid peritonitis; Rattus norvegicus, po, Table 8, oral, 10 mg/kg): 78.8%
- inhibition in vivo at 20 mg/kg (acetic acid peritonitis; Rattus norvegicus, po, Table 8, oral, 20 mg/kg): 94.2%
- ED50 (acetic acid peritonitis; Rattus norvegicus, oral administration 1 hour before i.p. acetic acid): 0.7 mg/kg
- PERITONEAL EXUDATE ml ± E.S. (acetic acid peritonitis; Table 4, os, 10 mg/kg, controls 2.91 ± 0.12): 0.75 ± 0.11 mL
- EXUDATE VOLUME ml ± E.S. (acetic acid peritonitis; Table 8, oral, 0.1 mg/kg, 1 hour before acetic acid): 1.89 ± 0.14 mL
- EXUDATE VOLUME ml ± E.S. (acetic acid peritonitis; Table 8, oral, 0.5 mg/kg): 1.34 ± 0.07 mL
- EXUDATE VOLUME ml ± E.S. (acetic acid peritonitis; Table 8, oral, 1 mg/kg): 1.20 ± 0.10 mL
- EXUDATE VOLUME ml ± E.S. (acetic acid peritonitis; Table 8, oral, 10 mg/kg): 0.54 ± 0.08 mL
- EXUDATE VOLUME ml ± E.S. (acetic acid peritonitis; Table 8, oral, 20 mg/kg): 0.15 ± 0.07 mL
- inhibition in vivo at 0.5 mg/kg ([1]; Rattus norvegicus, po, 10 min, os, 0.5 mg/kg, read-out: % INHIBI-TION): 24%
- inhibition in vivo at 5 mg/kg ([1]; Rattus norvegicus, po, 10 min, os, 5 mg/kg, read-out: % INHIBI-TION): 81%
- analgesic action ([1]; oral doses of 5 and 0.5 mg/kg, result in words): the more active of the tested compounds
- ULCERA-TION INDEX (gastric ulceration): 0
- % ANIMALS WITH ULCERS (gastric ulceration; at 0 time and after 2 hours, killed at 6 hours): 0%
- ULCERA-TION DEGREE (gastric ulceration; scale 0 to 4): 0
- % INHIBITION (Carrageenin pleuritis; 5 mg/kg): 34.8%
- EXUDATE VOLUME (Carrageenin pleuritis; 5 mg/kg): 1.80 ± 0.29
- % INHIBITION (Carrageenin pleuritis; 10 mg/kg): 63.0%
- EXUDATE VOLUME (Carrageenin pleuritis; 10 mg/kg): 1.02 ± 0.26
- inhibiting action on the pleuric exudative reaction (Carrageenin pleuritis; at the tested doses, result in words): significant inhibiting action
- ED50 ([2]; Mus musculus, 1 h, oral administration one hour before the test, read-out: ED50): 1 mg/kg
- % INHI-BITION ([2]; 0.1 mg/kg): 15.8%
- N° OF WRITHES IN 10' ml ± E.S. ([2]; 0.1 mg/kg): 44.1 ± 1.12
- % INHI-BITION ([2]; 0.5 mg/kg): 31.3%
- N° OF WRITHES IN 10' ml ± E.S. ([2]; 0.5 mg/kg): 36.0 ± 1.33
- % INHI-BITION ([2]; 1 mg/kg): 67.2%
- N° OF WRITHES IN 10' ml ± E.S. ([2]; 1 mg/kg): 17.2 ± 0.87
- % INHI-BITION ([2]; 2 mg/kg): 73.6%
- N° OF WRITHES IN 10' ml ± E.S. ([2]; 2 mg/kg): 13.8 ± 1.12
- % INHI-BITION ([2]; 5 mg/kg): 79.8%
- N° OF WRITHES IN 10' ml ± E.S. ([2]; 5 mg/kg): 10.6 ± 1.06
- % INHIBITION [2, 3]: 63.9%
- Nº OF WRITHES IN 10' ml ± E.S. [2, 3]: 19.2 ± 1.18
- % INHIBITION ([2]; 1 h before phenylbenzoquinone): 65.4%
- Nº OF WRITHES IN 10' ml ± E.S. ([2]; 1 h before phenylbenzoquinone): 18.4 ± 1.07
- % INHIBITION ([2]; 3 h before phenylbenzoquinone): 69.9%
- Nº OF WRITHES IN 10' ml ± E.S. ([2]; 3 h before phenylbenzoquinone): 16.0 ± 1.26
- % INHIBITION ([2]; 4 h before phenylbenzoquinone): 65.4%
- Nº OF WRITHES IN 10' ml ± E.S. ([2]; 4 h before phenylbenzoquinone): 18.4 ± 1.74
- % INHIBITION ([2]; 6 h before phenylbenzoquinone): 62.0%
- Nº OF WRITHES IN 10' ml ± E.S. ([2]; 6 h before phenylbenzoquinone): 20.2 ± 1.24
- % INHIBITION ([2]; 8 h before phenylbenzoquinone): 59.4%
- Nº OF WRITHES IN 10' ml ± E.S. ([2]; 8 h before phenylbenzoquinone): 21.6 ± 1.32
- % INHIBITION ([2]; 24 h before phenylbenzoquinone): 58.3%
- Nº OF WRITHES IN 10' ml ± E.S. ([2]; 24 h before phenylbenzoquinone): 22.2 ± 1.46
- % INHIBITION ([2]; 32 h before phenylbenzoquinone): 30.6%
- Nº OF WRITHES IN 10' ml ± E.S. ([2]; 32 h before phenylbenzoquinone): 36.9 ± 2.01
- duration of action ([2]; oral 1 mg/kg, result in words): longer lasting than that of Indomethacin and substantially comparable with that of Piroxicam
